As a reminder, the IC50 is the concentration needed to halve the response being measured.

In series [1] the target is T1, hCSE (Homo sapiens, UniProt P32929).
T1 construct: expressed in transfected cells; host or cells: HEK293T
The series is described as follows: hCSE inhibition in living HEK293T cells expressing hCSE (pretreatment, wash, lysis, HSip-1). The format is cell-based. As for the experimental part: (§1) We next examined the suitability of 1 for live-cell experiments. First, we performed CCK-8 assay (Dojindo) to examine its cytotoxicity. COS7 cells were incubated with various concentrations of 1 for 27 h at 37 °C under 5% CO2 and the cell viability was assessed. […] We then examined whether 1 can inhibit the enzymatic activity of hCSE in living cells by employing an indirect approach (Supplementary Fig. S12). HEK293T cells expressing hCSE were incubated with 0–1 mM 1 for 30 min, then washed twice with phosphate-buffered saline (PBS), and lysed in RIPA buffer (50 mM Tris–HCl buffer (pH 7.6), 150 mM NaCl, 1% Nonidet P40 Substitute, 0.5% sodium deoxycholate, protease inhibitor cocktail, 0.1% SDS). The inhibitory activity of 1 was evaluated by fluorescence detection after adding 1.5 mM cysteine, 100 μM PLP and 1 μM HSip-1 to these cell lysates.
Supplementary Figure S12. Experimental protocol for the indirect assessment of the hCSE-inhibitory activity of 1 in living cells. […] L-Cysteine (substrate), PLP and HSip-1 were added to the cell lysate (450 μg/mL cell lysate, 1.5 mM L-cysteine, 100 μM PLP, 1 μM HSip-1 in 30 mM HEPES buffer (pH 7.4) containing 0.005% Tween 20), and the fluorescence was measured with a plate reader (Ex. = 490 nm, Em. = 510 nm).

Series [2] addresses T2, human CSE (hCSE) (Homo sapiens, UniProt P32929).
T2 construct: expressed in transfected cells; host or cells: HEK293T
The series is described as follows: hCSE inhibition in lysate of HEK293T cells expressing hCSE, HSip-1. The conditions noted are these: mean ± S.E., read-out: IC50, inhibitory activity towards hCSE in cell lysate. It is filed as biochemical. As for the experimental part:
We first examined whether or not 1 inhibits human CSE (hCSE) in cell lysates. We prepared the lysate of HEK293T cells expressing hCSE, and added 1.5 mM cysteine, 100 μM PLP, 1 μM HSip-1 and various concentrations of 1 to it. Based on fluorescence measurements, the IC50 value of 1 for hCSE was calculated to be 26 ± 2 µM, which is similar to the value for rCSE measured in HEPES buffer (Fig. 4b). […] We also confirmed that all amino acid residues of rCSE involved in the recognition of 1 are conserved in hCSE (Supplementary Fig. S10).
10 µL of 1.5 mM cysteine solution in 30 mM HEPES (pH 7.4) was added to 10 µL of solution containing 300 µg/mL cell lysate of HEK293T cells expressing hCSE, 100 µM PLP, 1 µM HSip-1, 0.005% tween 20 and various concentrations of the inhibitor (0.5% DMSO as a cosolvent). The mixture was incubated at 37 °C for 3 h and the fluorescence intensity of HSip-1 was measured with a microplate reader.

Series [3] relates to ALT. As to the kind of experiment: ALT inhibition, coupled absorbance assay (NADH, 340 nm). It is filed as biochemical. The conditions noted are these: 30 µM. On the procedure: The selectivity of 1, 2 and PAG for rCSE over other RSS-producing enzymes, CBS and 3MST, was examined (Fig. 4a). CBS is a PLP-dependent enzyme, like CSE, and produces H2S from cysteine and homocysteine as substrates. 3MST is also an H2S-producing enzyme, but is not PLP-dependent and uses 3-mercaptopyruvate as a substrate. The amount of H2S produced by CBS or 3MST was evaluated in the presence or absence of the inhibitor by measuring the fluorescence intensity of HSip-1. […] We also examined the inhibitory activity towards two other PLP-dependent enzymes, MGL and ALT. MGL metabolizes L-methionine to α-ketobutyric acid, methanethiol and ammonia, and is inhibited by PAG[14]. MGL also produces H2S from homocysteine as a substrate, and this activity of MGL can be measured by fluorescence detection with HSip-1. […] The enzymatic activity of ALT can be assessed by means of a coupled assay using the reduction of pyruvate to L-lactate with lactate dehydrogenase and NADH and measuring the change in absorption of NADH.
An alanine aminotransferase activity assay kit (BioVision, Inc.) was used to measure the activity of ALT. A mixture of L-alanine, NADH, LDH (lactate dehydrogenase) and ALT was incubated at 37 °C for 15 min, then α-ketoglutarate was added to the mixture and the absorbance at 340 nm was measured with a microplate reader.

Series [4] concerns COS7 cells. The series is described as follows: CCK-8 cell viability assay. The format is cell-based. The conditions noted are these: 27 h, 37 °C. On the procedure: as §1
We performed CCK-8 (Cell Counting Kit-8) assay (Dojindo) to examine cell viability. […] This absorbance is proportional to the number of living cells. […] The absorbance at 450 nm was measured with a microplate reader (EnVision, Perkin Elmer).
Supplementary Figure S11. […] COS7 cells were incubated in DMEM (Dulbecco’s modified Eagle’s medium) containing 1 (1, 3, 10, 30 and 100 µM) for […] and the cell viability was measured using CCK-8 reagent. […]
For orientation: Tetrazolium dyes change colour on reduction, which living cells bring about.

T1 sequence (P32929 whole entry): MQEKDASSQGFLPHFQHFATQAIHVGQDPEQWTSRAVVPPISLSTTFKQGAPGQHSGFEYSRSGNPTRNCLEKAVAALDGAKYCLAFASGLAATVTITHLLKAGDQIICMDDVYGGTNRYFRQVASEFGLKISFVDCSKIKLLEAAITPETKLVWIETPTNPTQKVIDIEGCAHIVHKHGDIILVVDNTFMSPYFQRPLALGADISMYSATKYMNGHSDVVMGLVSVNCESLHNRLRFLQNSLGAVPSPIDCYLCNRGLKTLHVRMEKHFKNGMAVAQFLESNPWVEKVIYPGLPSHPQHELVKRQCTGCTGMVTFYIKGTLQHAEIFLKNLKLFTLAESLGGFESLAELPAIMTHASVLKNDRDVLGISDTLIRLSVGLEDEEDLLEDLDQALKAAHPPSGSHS
T2 sequence (P32929 whole entry): as above

With `NNC(=O)C(N)=O` [Compound 1, oxamic hydrazide], the IC50 was 170 ± 33 µM in series [1] (HEK293T cells expressing hCSE incubated 30 min with 1, washed, lysed, mean ± S.E., read-out: IC50, inhibitory activity towards hCSE in living cells) and 26 ± 2 µM in series [2]. Besides, the cell-membrane permeability result in series [1] (concluded from inhibition of hCSE in living cells) is given as “sufficiently cell-membrane permeable”. In addition, the “inhibitory activity towards ALT / selectivity for CSE over ALT” value in series [3] was “high selectivity for CSE over MGL and ALT”. In series [4], the “cytotoxicity (cell viability)” value was “No cytotoxicity was observed below 100 µM”.

(Values after publication PMC10542788, “Discovery of a cystathionine γ-lyase (CSE) selective inhibitor targeting active-site pyridoxal 5′-phosphate (PLP) via Schiff base formation” (Scientific Reports, 2023).)
